Data published in the RepoRT retention time repository (doi:10.1021/acs.analchem.1c00972).

Experiments:
[1] = RP, Waters ACQUITY UPLC BEH C18, 100 × 1 mm, 1.7 µm, 50 °C, 0.3 mL/min, estimated dead time 0.17 min; A: water + 10 mM ammonium bicarbonate; B: 10% water + 90% methanol + 10 mM ammonium bicarbonate; gradient (min/%B) 0/0 15/100 21/100 22/0 30/0; settings: stereoisomer not certain
[2] = RP, Waters ACQUITY UPLC BEH C18, 100 × 1 mm, 1.7 µm, 50 °C, 0.3 mL/min, estimated dead time 0.17 min; A: water + 0.1% formic acid + 20 mM ammonium formate; B: methanol + 0.1% formic acid + 20 mM ammonium formate; gradient (min/%B) 0/0 15/100 21/100 22/0 30/0; settings: stereoisomer not certain

SMILES | LC retention time [1] | LC retention time [2]
CON=C1CC2(CC3CC(CC=C(C)CC(C)C=CC=C4COC5C(O)C(C)=CC(C(=O)O3)C45O)O2)OC(C(C)=CC(C)C)C1C (configuration not stated) [Moxidectin] | 19 min | 18.6 min
COc1c(C(C)(C)C)cc([N+](=O)[O-])c(C)c1[N+](=O)[O-] [Musk ambrette] | 6.58 min | 8.38 min
CCCCCCCCCC(=O)N(C)C [N,N-Dimethyldecan-1-amide] | 16.5 min | 16.1 min
CCCCCCCCCC[N+](C)(C)[O-] [N,N-Dimethyldecylamine-N-oxide] | 15.2 min | 13.8 min
CC(C)CC(C)Nc1ccc(Nc2ccccc2)cc1 (configuration not stated) [N-(1,3-Dimethylbutyl)-N'-phenyl-1,4-phenylenediamine] | 17.2 min | 13.3 min
CN=CNc1ccc(C)cc1C [N-(2,4-Dimethylphenyl)-N-methyl-formamidine] | 12.1 min | 7.83 min
CC(=O)N(C)c1ccc(N)cc1 [N-(4-Aminophenyl)-N-methyl-acetamid] | 7.24 min | 5.17 min
CCNS(=O)(=O)c1ccccc1C [N-Ethyl-o-toluenesulfonamide] | 11.6 min | 11.4 min
CN(C1CCCCC1)C1CCCCC1 [N-Methyl-dicyclohexylamine] | 13.1 min | 9.22 min
CCCCCCCCCCCCNC [N-Methyldodecylamine] | 17.7 min | 15.2 min
O=NN1CCOCC1 [N-Nitrosomorpholine] | 3.78 min | 3.69 min
c1ccc2sc(NC3CCCCC3)nc2c1 [N-cyclohexyl-2-benzothiazole-amine] | 15.8 min | 14.1 min
COP(=O)(OC)OC(Br)C(Cl)(Cl)Br (configuration not stated) [Naled] | 13.6 min | 13.3 min
COc1ccc2cc(C(C)C(=O)O)ccc2c1 (configuration not stated) [Naproxen] | 11 min | 13.8 min
O=C1NC2C(=CC(O)C(O)C2O)c2cc3c(c(O)c21)OCO3 (configuration not stated) [Narciclasine] | 7.93 min | 7.92 min
COc1ccc(CCC(=O)c2c(O)cc(OC3OC(CO)C(O)C(O)C3OC3OC(C)C(O)C(O)C3O)cc2O)cc1O (configuration not stated) [Neohesperidin DC] | 10.4 min | 11.5 min
O=C(Nc1ccc([N+](=O)[O-])cc1Cl)c1cc(Cl)ccc1O [Niclosamide] | 13.6 min | 16.7 min
COC1CC(CC2CCC(C)C(C(C)C(=O)O)O2)OC2(OC(C)(C3CCC(C)(C4OC(C5OC(O)(CO)C(C)CC5C)CC4C)O3)CC2C)C1C (configuration not stated) [Nigericin] | 19.7 min | 18.8 min
CC1=CC2OC3C(O)C(O)C(C)(C34CO4)C2(CO)C(O)C1=O (configuration not stated) [Nivalenol] | 5.94 min | 5.87 min
C#CC1(O)CCC2C3CCC4=CC(=O)CCC4C3CCC21C (configuration not stated) [Norethindrone] | 14.2 min | 13.9 min
C#CC1(OC(C)=O)CCC2C3CCC4=CC(=O)CCC4C3CCC21C (configuration not stated) [Norethisterone acetate] | 15.7 min | 15.4 min
CNc1cnn(-c2cccc(C(F)(F)F)c2)c(=O)c1Cl [Norflurazon] | 13.5 min | 13.3 min

SMILES | LC retention time [1] | LC retention time [2]
C#CC1(OC(C)=O)CCC2C3CCC4=CC(=NO)CCC4C3CCC21CC (configuration not stated) [Norgestimate] | 16.6 min | 16.4 min
COc1ccc2c(c1OC)C(=O)OC2C1c2c(cc3c(c2OC)OCO3)CCN1C (configuration not stated) [Noscapin] | 14.8 min | 9.81 min
CCCCC(CC)COC(=O)C(C#N)=C(c1ccccc1)c1ccccc1 (configuration not stated) [Octocrylene] | 18.2 min | 17.8 min
CC1COc2c(N3CCN(C)CC3)c(F)cc3c(=O)c(C(=O)O)cn1c23 (configuration not stated) [Ofloxacin] | 9.6 min | 8.04 min
COC1CC(OC2CCC3(C)C(CCC4C3CCC3(C)C(C5=CC(=O)OC5)C(OC(C)=O)CC43O)C2)OC(C)C1O (configuration not stated) [Oleandrin] | 14.7 min | 14.4 min
CCCc1nc(C(C)(C)O)c(C(=O)O)n1Cc1ccc(-c2ccccc2-c2nn[nH]n2)cc1 [Olmesartan] | 10.6 min | 10.9 min
Cc1nccn1CC1CCc2c(c3ccccc3n2C)C1=O (configuration not stated) [Ondansetron] | 12.4 min | 9.64 min
CCN(CC)C(=O)SCc1ccccc1Cl [Orbencarb] | 16.3 min | 15.9 min
Cc1onc(-c2ccccc2)c1C(=O)NC1C(=O)N2C1SC(C)(C)C2C(=O)O (configuration not stated) [Oxacillin] | 11.6 min | 12.7 min
COCC(=O)N(c1c(C)cccc1C)N1CCOC1=O [Oxadixyl] | 11.2 min | 11 min
Cc1cc(C)nc(NC(=O)NS(=O)(=O)c2ccccc2C(=O)OC2COC2)n1 [Oxasulfuron] | 9.07 min | 11.3 min
O=C1Nc2ccc(Cl)cc2C(c2ccccc2)=NC1O (configuration not stated) [Oxazepam] | 13.5 min | 13.2 min
CCN(CC)CC#CCOC(=O)C(O)(c1ccccc1)C1CCCCC1 (configuration not stated) [Oxybutynin] | 17.2 min | 13.6 min
CC(C)(C)C(O)C(Cc1ccc(Cl)cc1)n1cncn1 (configuration not stated) [Paclubutrazole] | 14.6 min | 14.4 min
COc1ccc(Cc2nccc3cc(OC)c(OC)cc23)cc1OC [Papaverin] | 13.3 min | 9.77 min
CC1CC2C3CC(F)C4=CC(=O)C=CC4(C)C3C(O)CC2(C)C1(O)C(=O)CO (configuration not stated) [Paramethasone] | 13.5 min | 13.2 min
Fc1ccc(C2CCNCC2COc2ccc3c(c2)OCO3)cc1 (configuration not stated) [Paroxetine] | 15 min | 12.8 min
C=C1C(=O)OC2C1CCC(C)=CCCC1(C)OC21 (configuration not stated) [Parthenolid] | 13.1 min | 12.8 min
CC(=O)CCCCn1c(=O)c2c(ncn2C)n(C)c1=O [Pentoxifylline] | 9.98 min | 9.87 min
CC(=O)c1cc2c(cc1C)C(C)(C)C(C)C2(C)C (configuration not stated) [Phantolide] | 17.9 min | 17.5 min
Cc1cc(=O)n(-c2ccccc2)n1C [Phenazone] | 8.96 min | 8.9 min
CNCC(O)c1cccc(O)c1 (configuration not stated) [Phenylephrine] | 5.43 min | 2.01 min

SMILES | LC retention time [1] | LC retention time [2]
CCOP(=S)(OCC)ON=C(C#N)c1ccccc1 [Phoxim] | 14.4 min | 15.9 min
Nc1c(Cl)c(Cl)nc(C(=O)O)c1Cl [Picloram] | 4.43 min | 7.28 min
C=C(C)C1C2OC(=O)C1C1(O)CC3OC34C(=O)OC2C14C (configuration not stated) [Picrotoxinin] | 9.36 min | 9.25 min
CCC1C(=O)OCC1Cc1cncn1C (configuration not stated) [Pilocarpine] | 8.77 min | 4.92 min
CC(C)NCC(O)COc1cccc2[nH]ccc12 (configuration not stated) [Pindolol] | 10.2 min | 7.51 min
CCc1ccc(CCOc2ccc(CC3SC(=O)NC3=O)cc2)nc1 (configuration not stated) [Pioglitazone] | 13.3 min | 11.1 min
NC(=O)C1(N2CCCCC2)CCN(CCCC(=O)c2ccc(F)cc2)CC1 [Pipamperone] | 14.5 min | 9.31 min
CCCOP(=S)(OCCC)SCC(=O)N1CCCCC1C (configuration not stated) [Piperophos] | 16.6 min | 16.3 min
CCN(CC)c1nc(C)cc(OP(=S)(OC)OC)n1 [Pirimiphos-methyl] | 16.3 min | 15.8 min
O=C(C1CCCCC1)N1CC(=O)N2CCc3ccccc3C2C1 (configuration not stated) [Praziquantel] | 14.3 min | 14 min
CC12C=CC(=O)C=C1CCC1C2C(=O)CC2(C)C1CCC2(O)C(=O)CO (configuration not stated) [Prednisone] | 12.2 min | 12 min
CCCNC(C)C(=O)Nc1ccccc1C (configuration not stated) [Prilocaine] | 13.8 min | 8.85 min
COC(=O)c1ccccc1S(=O)(=O)NC(=O)Nc1nc(OC(F)F)cc(OC(F)F)n1 [Primisufuron-methyl] | 12.6 min | 14.4 min
CC(=O)C1CCC2C3CCC4=CC(=O)CCC4(C)C3CCC12C (configuration not stated) [Progesterone] | 15.9 min | 15.5 min
CC(CN1c2ccccc2Sc2ccccc21)N(C)C (configuration not stated) [Promethazin] | 16.8 min | 12.5 min
COc1nc(NC(C)C)nc(NC(C)C)n1 [Prometon] | 14.1 min | 12.2 min
CC(C)Nc1nc(NC(C)C)[nH]c(=O)n1 [Propazine-2-hydroxy] | 12.2 min | 9.88 min
CCCOc1nn(C(=O)NS(=O)(=O)c2ccccc2C(=O)OC)c(=O)n1C [Propoxycarbazone] | 9.89 min | 11.8 min
CCC(=O)OC(Cc1ccccc1)(c1ccccc1)C(C)CN(C)C (configuration not stated) [Propoxyphene] | 16.8 min | 12.5 min
Cc1c(C(C)C)c(=O)n(-c2ccccc2)n1C [Propyphenazone] | 12.6 min | 12.3 min
OC(Cc1ccccc1Cl)(Cn1cncn1)C1(Cl)CC1 (configuration not stated) [Prothioconazole-desthio] | 15.3 min | 15 min
CN1CCc2cc3c(cc2C(=O)Cc2ccc4c(c2C1)OCO4)OCO3 [Protopin] | 13.6 min | 9.28 min
